Key:
Assay in all cases: Ba/F3 drug screening, Cell Titer Glo, IC50 Mut/WT
Assay type in all cases: cell-based
EGFR L833F = molecular target: T1, EGFR L833F (Homo sapiens, UniProt P00533, L833F); details: Classical-Like, 72 hours
T1 construct: expressed in transfected cells; host or cells: Ba/F3 cells, retroviral pBabe-Puro vector
Procedure: (§1) Data represent the ratio of the IC50 value for a given TKI for cells with a classical-like EGFR mutation to the IC50 value for cells with wildtype EGFR.
(§2) Ba/F3 cell generation, drug screening, and IC50 approximations. Ba/F3 cells were obtained as a gift from Dr. Gordon Mills (MD Anderson Cancer Center), and maintained in RPMI (Sigma) containing 10% FBS, 1% penicillin/streptomycin, and 10 ng/ml recombinant mIL-3 (R&D Biosystems). To establish stable Ba/F3 cell lines, Ba/F3 cells were transduced with retroviruses containing mutant EGFR plasmids for 12-24 hours.
(§3) After 48-72 hours of transduction, 2 μg/ml puromycin (Invitrogen) was added to Ba/F3 cell lines in complete RPMI. To select for EGFR positive cell lines, cells were stained with PE-EGFR (Biolegend) and sorted by FACS. After sorting, EGFR positive cells were maintained in RPMI containing 10% FBS, 1% penicillin/streptomycin, and 1 ng/ml EGF to support cell viability. […] Shortly, cells were plated in 384-well plates (Greiner Bio-One) at 2000-3000 cells per well in technical triplicate. Seven different concentrations of TKIs or DMSO vehicle were added to reach a final volume of 40 μL per well. After 72 hours, 11 μL of Cell Titer Glo (Promega) was added to each well. Plates were incubated for a minimum of 10 minutes, and bioluminescence was determined using a FLUOstar OPTIMA plate reader (BMG LABTECH). Raw bioluminescence values were normalized to DMSO control treated cells, and values were plotted in GraphPad Prism. […] Drug screens were performed in technical triplicate on each plate and either duplicate or triplicate biological replicates.

EGFR L858R S784F = molecular target: T2, EGFR L858R S784F (Homo sapiens, UniProt P00533, L858R/S784F); details: Classical-Like, 72 hours
T2 construct: expressed in transfected cells; host or cells: Ba/F3 cells, retroviral pBabe-Puro vector (vector made by GeneScript from EGFR L858R)
Procedure: as §1, §2, §3

EGFR S720P = molecular target: T3, EGFR S720P (Homo sapiens, UniProt P00533, S720P); details: Classical-Like, 72 hours
T3 construct: expressed in transfected cells; host or cells: Ba/F3 cells, retroviral pBabe-Puro vector (vector made by GeneScript from EGFR WT)

EGFR A763insFQEA = molecular target: T4, EGFR A763insFQEA (Homo sapiens, UniProt P00533, INS763FQEA); details: Classical-Like, 72 hours
T4 construct: expressed in transfected cells; host or cells: Ba/F3 cells, retroviral pBabe-Puro vector
Procedure: as §1, §2, §3

EGFR D761N = molecular target: T5, EGFR D761N (Homo sapiens, UniProt P00533, D761N); details: Classical-Like, 72 hours
T5 construct: expressed in transfected cells; host or cells: Ba/F3 cells, retroviral pBabe-Puro vector

EGFR S768dupSVD = molecular target: T6, EGFR S768dupSVD (Homo sapiens, UniProt P00533, DUP768-770); details: Ex20, 72 hours
T6 construct: expressed in transfected cells; host or cells: Ba/F3 cells, retroviral pBabe-Puro vector
Procedure: (§4) Data represent the ratio of the IC50 value for a given TKI for cells with an ex20ins EGFR mutation to the IC50 value for cells with wildtype EGFR.
as §2
(§5) After 48-72 hours of transduction, 2 μg/ml puromycin (Invitrogen) was added to Ba/F3 cell lines in complete RPMI. To select for EGFR positive cell lines, cells were stained with PE-EGFR (Biolegend) and sorted by FACS. After sorting, EGFR positive cells were maintained in RPMI containing 10% FBS, 1% penicillin/streptomycin, and 1 ng/ml EGF to support cell viability. Drug screening was performed as previously described^41,42. Shortly, cells were plated in 384-well plates (Greiner Bio-One) at 2000-3000 cells per well in technical triplicate. Seven different concentrations of TKIs or DMSO vehicle were added to reach a final volume of 40 μL per well. After 72 hours, 11 μL of Cell Titer Glo (Promega) was added to each well. Plates were incubated for a minimum of 10 minutes, and bioluminescence was determined using a FLUOstar OPTIMA plate reader (BMG LABTECH). Raw bioluminescence values were normalized to DMSO control treated cells, and values were plotted in GraphPad Prism. […] Drug screens were performed in technical triplicate on each plate and either duplicate or triplicate biological replicates. […] Statistical differences between groups were determined by ANOVA as described in the figure legends.

EGFR H773insNPH = molecular target: T7, EGFR H773insNPH (Homo sapiens, UniProt P00533, INS773NPH); details: Ex20, 72 hours
T7 construct: expressed in transfected cells; host or cells: Ba/F3 cells, retroviral pBabe-Puro vector
Procedure: as §4, §2, §5

EGFR N771dupN = molecular target: T8, EGFR N771dupN (Homo sapiens, UniProt P00533, DUP771-771); details: Ex20, 72 hours
T8 construct: expressed in transfected cells; host or cells: Ba/F3 cells, retroviral pBabe-Puro vector

EGFR N771dupN G724S = molecular target: T9, EGFR N771dupN G724S (Homo sapiens, UniProt P00533, DUP771-771/G724S); details: Ex20, 72 hours
T9 construct: expressed in transfected cells; host or cells: Ba/F3 cells, retroviral pBabe-Puro vector (vector made by GeneScript from EGFR G724S, c.2313_2314insAAC)

[1] = molecular target: T10, EGFR L747_K754del insATSPE (Homo sapiens, UniProt P00533, DEL747-749/K754E); details: T790M-like-3S, 72 hours
T10 construct: expressed in transfected cells; host or cells: Ba/F3 cells, retroviral pBabe-Puro vector
Procedure: (§6) Data represent the ratio of the IC50 value for a given TKI for cells with a T790M-like-3S EGFR mutation to the IC50 value for cells with wildtype EGFR.
as §2
(§7) After 48-72 hours of transduction, 2 μg/ml puromycin (Invitrogen) was added to Ba/F3 cell lines in complete RPMI. To select for EGFR positive cell lines, cells were stained with PE-EGFR (Biolegend) and sorted by FACS. After sorting, EGFR positive cells were maintained in RPMI containing 10% FBS, 1% penicillin/streptomycin, and 1 ng/ml EGF to support cell viability. Drug screening was performed as previously described^41,42. Shortly, cells were plated in 384-well plates (Greiner Bio-One) at 2000-3000 cells per well in technical triplicate. Seven different concentrations of TKIs or DMSO vehicle were added to reach a final volume of 40 μL per well. After 72 hours, 11 μL of Cell Titer Glo (Promega) was added to each well. Plates were incubated for a minimum of 10 minutes, and bioluminescence was determined using a FLUOstar OPTIMA plate reader (BMG LABTECH). Raw bioluminescence values were normalized to DMSO control treated cells, and values were plotted in GraphPad Prism. […] Drug screens were performed in technical triplicate on each plate and either duplicate or triplicate biological replicates.

EGFR T790M = molecular target: T11, EGFR T790M (Homo sapiens, UniProt P00533, T790M); details: T790M-like-3S, 72 hours
T11 construct: expressed in transfected cells; host or cells: Ba/F3
Procedure: as §6, §2, §7

EGFR Ex19del T790M = molecular target: T12, EGFR Ex19del T790M (Homo sapiens, UniProt P00533, DEL746-750/T790M); details: T790M-like-3S, 72 hours
T12 construct: expressed in transfected cells; host or cells: Ba/F3

EGFR G719A T790M = molecular target: T13, EGFR G719A T790M (Homo sapiens, UniProt P00533, G719A/T790M); details: T790M-like-3S, 72 hours
T13 construct: expressed in transfected cells; host or cells: Ba/F3

EGFR G719S T790M = molecular target: T14, EGFR G719S T790M (Homo sapiens, UniProt P00533, G719S/T790M); details: T790M-like-3S, 72 hours
T14 construct: expressed in transfected cells; host or cells: Ba/F3
Procedure: as §6, §2, §7

EGFR Ex19del/T790M/G724S = molecular target: T15, EGFR Ex19del/T790M/G724S (Homo sapiens, UniProt P00533, DEL746-750/G724S/T790M); details: T790M-like-3S, 72 hours
T15 construct: expressed in transfected cells; host or cells: Ba/F3

EGFR L858R T790M L792H = molecular target: T16, EGFR L858R T790M L792H (Homo sapiens, UniProt P00533, L792H/L858R/T790M); details: T790M-like-3S, 72 hours
T16 construct: expressed in transfected cells; host or cells: Ba/F3

EGFR Ex19del T790M L718V = molecular target: T17, EGFR Ex19del T790M L718V (Homo sapiens, UniProt P00533, DEL746-750/L718V/T790M); details: T790M-like-3S, 72 hours
T17 construct: expressed in transfected cells; host or cells: Ba/F3
Procedure: as §6, §2, §7

EGFR L858R/T790M/L718Q = molecular target: T18, EGFR L858R/T790M/L718Q (Homo sapiens, UniProt P00533, L718Q/L858R/T790M); details: T790M-like-3R, 72 hours
T18 construct: expressed in transfected cells; host or cells: Ba/F3
Procedure: (§8) Data represent the ratio of the IC50 value for a given TKI for cells with a T790M-like-3R EGFR mutation to the IC50 value for cells with wildtype EGFR.
as §2
(§9) After 48-72 hours of transduction, 2 μg/ml puromycin (Invitrogen) was added to Ba/F3 cell lines in complete RPMI. To select for EGFR positive cell lines, cells were stained with PE-EGFR (Biolegend) and sorted by FACS. After sorting, EGFR positive cells were maintained in RPMI containing 10% FBS, 1% penicillin/streptomycin, and 1 ng/ml EGF to support cell viability. […] Shortly, cells were plated in 384-well plates (Greiner Bio-One) at 2000-3000 cells per well in technical triplicate. Seven different concentrations of TKIs or DMSO vehicle were added to reach a final volume of 40 μL per well. After 72 hours, 11 μL of Cell Titer Glo (Promega) was added to each well. Plates were incubated for a minimum of 10 minutes, and bioluminescence was determined using a FLUOstar OPTIMA plate reader (BMG LABTECH). Raw bioluminescence values were normalized to DMSO control treated cells, and values were plotted in GraphPad Prism. […] Drug screens were performed in technical triplicate on each plate and either duplicate or triplicate biological replicates. […] Statistical differences between groups were determined by ANOVA as described in the figure legends.

EGFR Ex19del/T790M/L792H = molecular target: T19, EGFR Ex19del/T790M/L792H (Homo sapiens, UniProt P00533, DEL746-750/L792H/T790M); details: T790M-like-3R, 72 hours
T19 construct: expressed in transfected cells; host or cells: Ba/F3
Procedure: as §8, §2, §9

EGFR Ex19del T790M C797S = molecular target: T20, EGFR Ex19del T790M C797S (Homo sapiens, UniProt P00533, C797S/DEL746-750/T790M); details: T790M-like-3R, 72 hours
T20 construct: expressed in transfected cells; host or cells: Ba/F3
Procedure: as §8, §2, §9

EGFR E709K G719S = molecular target: T21, EGFR E709K G719S (Homo sapiens, UniProt P00533, E709K/G719S); details: Ba/F3 cells, EGFR E709K G719S (PACC), Mut/WT
T21 construct: expressed in transfected cells; host or cells: Ba/F3

EGFR E709A G719S = molecular target: T22, EGFR E709A G719S (Homo sapiens, UniProt P00533, E709A/G719S); details: Ba/F3 cells, EGFR E709A G719S (PACC), Mut/WT
T22 construct: expressed in transfected cells; host or cells: Ba/F3

EGFR E709A = molecular target: T23, EGFR E709A (Homo sapiens, UniProt P00533, E709A); details: Ba/F3 cells, EGFR E709A (PACC), Mut/WT
T23 construct: expressed in transfected cells; host or cells: Ba/F3

EGFR V774M = molecular target: T24, EGFR V774M (Homo sapiens, UniProt P00533, V774M); details: Ba/F3 cells, EGFR V774M (PACC), Mut/WT
T24 construct: host or cells: Ba/F3

EGFR L858R L718Q = molecular target: T25, EGFR L858R L718Q (Homo sapiens, UniProt P00533, L718Q/L858R); details: Ba/F3 cells, EGFR L858R L718Q (PACC), Mut/WT
T25 construct: host or cells: Ba/F3
Procedure: (§10) Data represent the ratio of the IC50 value for a given TKI for cells with a PACC EGFR mutation to the IC50 value for cells with wildtype EGFR.
as §2, §7

EGFR Ex19del G796S = molecular target: T26, EGFR Ex19del G796S (Homo sapiens, UniProt P00533, DEL746-750/G796S); details: Ba/F3 cells, EGFR Ex19del G796S (PACC), Mut/WT
T26 construct: expressed in transfected cells; host or cells: Ba/F3
Procedure: as §10, §2, §7

EGFR Ex19del L718Q = molecular target: T27, EGFR Ex19del L718Q (Homo sapiens, UniProt P00533, DEL746-750/L718Q); details: Ba/F3 cells, EGFR Ex19del L718Q (PACC), Mut/WT
T27 construct: expressed in transfected cells; host or cells: Ba/F3

- ratio of IC50 for cells with mutant EGFR to IC50 for cells with wildtype EGFR (Mut/WT) (EGFR L833F): 0.0584
- ratio of IC50 for cells with mutant EGFR to IC50 for cells with wildtype EGFR (Mut/WT) (EGFR L858R S784F): 0.03577
- ratio of IC50 for cells with mutant EGFR to IC50 for cells with wildtype EGFR (Mut/WT) (EGFR S720P): 0.005619
- ratio of IC50 for cells with mutant EGFR to IC50 for cells with wildtype EGFR (Mut/WT) (EGFR A763insFQEA): 0.05676
- ratio of IC50 for cells with mutant EGFR to IC50 for cells with wildtype EGFR (Mut/WT) (EGFR D761N): 0.0009686
- ratio of IC50 for cells with mutant EGFR to IC50 for cells with wildtype EGFR (Mut/WT) (EGFR S768dupSVD): 0.4008
- ratio of IC50 for cells with mutant EGFR to IC50 for cells with wildtype EGFR (Mut/WT) (EGFR H773insNPH): 0.4242
- ratio of IC50 for cells with mutant EGFR to IC50 for cells with wildtype EGFR (Mut/WT) (EGFR N771dupN): 0.371
- ratio of IC50 for cells with mutant EGFR to IC50 for cells with wildtype EGFR (Mut/WT) (EGFR N771dupN G724S): 0.3384
- ratio of IC50 for cells with mutant EGFR to IC50 for cells with wildtype EGFR (Mut/WT) [1]: 0.001195
- ratio of IC50 for cells with mutant EGFR to IC50 for cells with wildtype EGFR (Mut/WT) (EGFR T790M): 0.1166
- ratio of IC50 for cells with mutant EGFR to IC50 for cells with wildtype EGFR (Mut/WT) (EGFR Ex19del T790M): 0.01265
- ratio of IC50 for cells with mutant EGFR to IC50 for cells with wildtype EGFR (Mut/WT) (EGFR G719A T790M): 0.02653
- ratio of IC50 for cells with mutant EGFR to IC50 for cells with wildtype EGFR (Mut/WT) (EGFR G719S T790M): 0.04811
- ratio of IC50 for cells with mutant EGFR to IC50 for cells with wildtype EGFR (Mut/WT) (EGFR Ex19del/T790M/G724S): 0.06117
- ratio of IC50 for cells with mutant EGFR to IC50 for cells with wildtype EGFR (Mut/WT) (EGFR L858R T790M L792H): 0.02884
- ratio of IC50 for cells with mutant EGFR to IC50 for cells with wildtype EGFR (Mut/WT) (EGFR Ex19del T790M L718V): 0.2594
- ratio of IC50 for cells with mutant EGFR to IC50 for cells with wildtype EGFR (Mut/WT) (EGFR L858R/T790M/L718Q): 0.7714
- ratio of IC50 for cells with mutant EGFR to IC50 for cells with wildtype EGFR (Mut/WT) (EGFR Ex19del/T790M/L792H): 4.292
- ratio of IC50 for cells with mutant EGFR to IC50 for cells with wildtype EGFR (Mut/WT) (EGFR Ex19del T790M C797S): 5.557
- ratio of the IC50 value for cells with a PACC EGFR mutation to the IC50 value for cells with wildtype EGFR (EGFR E709K G719S): 0.4195
- ratio of the IC50 value for cells with a PACC EGFR mutation to the IC50 value for cells with wildtype EGFR (EGFR E709A G719S): 0.09237
- ratio of the IC50 value for cells with a PACC EGFR mutation to the IC50 value for cells with wildtype EGFR (EGFR E709A): 0.07784
- ratio of the IC50 value for cells with a PACC EGFR mutation to the IC50 value for cells with wildtype EGFR (EGFR V774M): 0.1179
- ratio of the IC50 value for cells with a PACC EGFR mutation to the IC50 value for cells with wildtype EGFR (EGFR L858R L718Q): 0.6234
- ratio of the IC50 value for cells with a PACC EGFR mutation to the IC50 value for cells with wildtype EGFR (EGFR Ex19del G796S): 0.6604
- ratio of the IC50 value for cells with a PACC EGFR mutation to the IC50 value for cells with wildtype EGFR (EGFR Ex19del L718Q): 0.03801
Compound: Cc1cc(C(=O)Nc2nc3cccc(Cl)c3n2[C@@H]2CCCCN(C(=O)/C=C/CN(C)C)C2)ccn1 [Nazartinib]
